Data reported in patent publication US6737383B1, “Herbicidal oxadiazolidines” (priority 1999, dated 2004).

Columns and labels:
giant foxtail = test: Test B pre/postemergence giant foxtail; type: in vivo, Setaria faberii
Procedure, shortened: (§1)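 Test chemicals in a non-phytotoxic solvent mixture with surfactant were sprayed preemergence onto planted seeds and postemergence onto plants 2 to 18 cm tall (1- to 4-leaf stage). After twelve to sixteen days in a greenhouse, injury was visually rated against untreated controls from 0 (no effect) to 10 (complete control).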

common ragweed = test: Test D common ragweed; type: in vivo, Ambrosia elatior; conditions: Preemergence, 0 to 100 scale
Procedure, shortened: (§2)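 Weed seeds planted in sandy loam; species kept apart in individual pots or compartments. Preemergence tests: treatment to soil surface within one day. Greenhouse growth, then visual injury scoring at 14–21 days (0–100).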

winter barley = test: Test E winter barley; type: in vivo, Hordeum vulgare; conditions: Preemergence
wild oat = test: Test E wild oat; type: in vivo, Avena fatua; conditions: Preemergence
Italian ryegrass = test: Test E Italian ryegrass; type: in vivo, Lolium multiflorum; conditions: Preemergence
winter wheat [1] = test: Test E winter wheat; type: in vivo, Triticum aestivum; conditions: Preemergence
green foxtail [2] = test: Test E green foxtail; type: in vivo, Setaria viridis; conditions: Preemergence, 0 to 100 scale
Green foxtail [3] = test: Test D green foxtail; type: in vivo
Procedure, shortened: as §2

winter wheat [4] = test: Test E winter wheat; type: in vivo, Triticum aestivum; conditions: Postemergence
Procedure, shortened: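 Each compound, carried in a non-phytotoxic solvent blend including surfactant, was applied (postemergence: over the top of young plants at 1- to 4-leaf stage). Plants stayed in the greenhouse about 21 to 28 days before visual comparison with untreated controls.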

itchgrass = test: Test D itchgrass; type: in vivo, Rottboellia exaltata; conditions: Preemergence, 0 to 100 scale
Procedure, shortened: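 Scoring used a 0–100 visual injury scale, with 0 meaning no effect and 100 complete control, assessed 14–21 days after application alongside untreated pots. Preemergence treatments went onto sandy loam surfaces of separately potted seeds within a day of sowing.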

morningglory = test: Test B pre/postemergence morningglory; type: in vivo, Ipomoea hederacea
Procedure, shortened: as §1

Green foxtail [5] = test: Test D green foxtail; type: in vivo; conditions: Preemergence, 0 to 100 scale
Procedure, shortened: as §2

blackgrass = test: Test E blackgrass; type: in vivo, Alopecurus myosuroides; conditions: Preemergence
pigweed = test: Test B pre/postemergence pigweed; type: in vivo, Amaranthus retroflexus
Procedure, shortened: as §1

[6] = Postemergence, Rate 125 g/ha, scale of 0 to 10 where 0 is no effect and 10 is complete control
[7] = Postemergence, Rate 250 g/ha, scale 0 to 10, 0 no effect, 10 complete control
[8] = Preemergence, Rate 62 g/ha, scale 0 to 10 (0 no effect, 10 complete control)
[9] = Preemergence, Rate 125 g/ha, scale 0 to 10 (0 no effect, 10 complete control)
[10] = Preemergence, Rate 250 g/ha, scale of 0 to 10 where 0 is no effect and 10 is complete control
[11] = Preemergence, Rate 500 g/ha, scale 0 to 10 (0 no effect, 10 complete control)
[12] = Rate 62 g/ha, Postemergence, scale of 0 to 10 where 0 is no effect and 10 is complete control
[13] = Rate 500 g/ha, Postemergence, scale 0 to 10, 0 no effect, 10 complete control
[14] = Rate 16 g/ha, 0 no injury, 100 complete control
[15] = Rate 32 g/ha, 0 no injury, 100 complete control
[16] = Rate 64 g/ha, 0 no injury, 100 complete control
[17] = Rate 125 g/ha, 0 no injury, 100 complete control
[18] = Rate 62 g/ha, 0 to 100 scale, 0 no effect, 100 complete control
[19] = Rate 125 g/ha, 0 to 100 scale (0 no effect, 100 complete control)
[20] = Rate 64 g/ha, Preemergence; 0 to 100 scale, 0 no injury, 100 complete control
[21] = Rate 125 g/ha, Preemergence; 0 to 100 scale, 0 no injury, 100 complete control

## CCn1c(=O)on(C(=O)N(c2ccc(Cl)cc2)C(C)C)c1=O [Compound 108]
Giant foxtail; [6]
  Giant foxtail plant response rating: 7
Giant foxtail; [7]
  Giant foxtail plant response rating: 8
Giant foxtail; [8]
  Giant foxtail plant response rating: 10
Giant foxtail; [9]
  Plant response rating, Giant foxtail: 10
Giant foxtail; [10]
  Plant response rating, Giant foxtail: 10
Giant foxtail; [11]
  Giant foxtail plant response rating: 10
Giant foxtail; [12]
  Giant foxtail plant response rating: 5
Giant foxtail; [13]
  Giant foxtail plant response rating: 8
Common ragweed; [14]
  Plant response rating, C. ragweed: 0
Common ragweed; [15]
  Plant response rating, C. ragweed: 0
Common ragweed; [16]
  Plant response rating, C. ragweed: 0
Common ragweed; [17]
  Plant response rating, C. ragweed: 0
Common ragweed; Rate 250 g/ha
  Plant response rating, C. ragweed: 0
Common ragweed; Rate 500 g/ha
  Plant response rating, C. ragweed: 80
Winter barley; [18]
  Plant response rating, Barley (winter): 10
Winter barley; [19]
  Plant response rating, Barley (winter): 20
Winter barley; Rate 250 g/ha, 0 to 100 scale
  Plant response rating, Barley (winter): 10
Wild oat; [18]
  Plant response rating, Wild oat: 15
Wild oat; [19]
  Plant response rating, Wild oat: 30
Italian ryegrass; [18]
  Plant response rating, I. Ryegrass: 20
Italian ryegrass; [19]
  Plant response rating, I. Ryegrass: 45
Italian ryegrass; Rate 250 g/ha, 0 to 100 scale
  Plant response rating, I. Ryegrass: 95
Winter wheat [1]; [18]
  Plant response rating, Wheat (winter): 0
Winter wheat [1]; [19]
  Plant response rating, Wheat (winter): 10
Winter wheat [1]; Rate 250 g/ha, 0 to 100 scale
  Plant response rating, Wheat (winter): 10
Green foxtail [2]; Rate 62 g/ha, 0 no effect, 100 complete control
  Plant response rating, Green foxtail: 65
Green foxtail [2]; Rate 250 g/ha
  Plant response rating, Green foxtail: 90
Green foxtail [3]; Preemergence; Rate 16 g/ha; 0 to 100 scale, 0 no injury, 100 complete control
  Plant response rating, Green foxtail: 40
Green foxtail [3]; Preemergence; Rate 32 g/ha; 0 to 100 scale, 0 no injury, 100 complete control
  Plant response rating, Green foxtail: 100
Green foxtail [3]; Rate 16 g/ha; Preemergence; 0 to 100 scale, 0 no injury, 100 complete control
  Plant response rating, Green foxtail: 40
Green foxtail [3]; Rate 32 g/ha; Preemergence; 0 to 100 scale, 0 no injury, 100 complete control
  Plant response rating, Green foxtail: 100
Green foxtail [3]; [20]
  Green foxtail plant response rating: 100
  Plant response rating, Green foxtail: 100
Green foxtail [3]; [21]
  Green foxtail plant response rating: 100
  Plant response rating, Green foxtail: 100
Green foxtail [3]; Rate 250 g/ha; Preemergence; 0 to 100 scale
  Plant response rating, Green foxtail: 100
Green foxtail [3]; Rate 500 g/ha, Preemergence; 0 to 100 scale
  Plant response rating, Green foxtail: 100
Winter wheat [4]; Rate 62 g/ha, 0 to 100 scale
  Plant response rating, Wheat (winter): 0
Winter wheat [4]; Rate 125 g/ha, 0 to 100 scale
  Plant response rating, Wheat (winter): 20
Winter wheat [4]; Rate 250 g/ha, 0 to 100 scale (0 no effect, 100 complete control)
  Plant response rating, Wheat (winter): 40
itchgrass; [14]
  Plant response rating, Itchgrass: 0
itchgrass; [15]
  Plant response rating, Itchgrass: 20
itchgrass; [16]
  Plant response rating, Itchgrass: 30
itchgrass; [17]
  Plant response rating, Itchgrass: 40
itchgrass; Rate 250 g/ha
  Plant response rating, Itchgrass: 98
itchgrass; Rate 500 g/ha
  Plant response rating, Itchgrass: 100
morningglory; [6]
  Morningglory plant response rating: 3
morningglory; [7]
  Morningglory plant response rating: 3
morningglory; [8]
  Morningglory plant response rating: 0
morningglory; [9]
  Plant response rating, Morningglory: 0
morningglory; [10]
  Plant response rating, Morningglory: 0
morningglory; [11]
  Morningglory plant response rating: 0
morningglory; [12]
  Morningglory plant response rating: 0
morningglory; [13]
  Morningglory plant response rating: 3
Green foxtail [5]; Rate 250 g/ha
  Plant response rating, Green foxtail: 100
Green foxtail [5]; Rate 500 g/ha
  Plant response rating, Green foxtail: 100
blackgrass; [18]
  Plant response rating, Blackgrass: 40
blackgrass; [19]
  Plant response rating, Blackgrass: 75
blackgrass; Rate 250 g/ha, 0 to 100 scale
  Plant response rating, Blackgrass: 90
pigweed; [6]
  Redroot pigweed plant response rating: 0
pigweed; [9]
  Plant response rating, Redroot pigweed: 3
pigweed; [10]
  Plant response rating, Redroot pigweed: 10
pigweed; [11]
  Redroot pigweed plant response rating: 10
pigweed; [12]
  Redroot pigweed plant response rating: 0
pigweed; Rate 250 g/ha, Postemergence, scale 0 to 10, 0 is no effect, 10 is complete control
  Plant response rating, Redroot pigweed: 0
pigweed; [13]
  Redroot pigweed plant response rating: 3
